In patent US10899754B2, “Modulators of indoleamine 2,3-dioxygenase” (GLAXOSMITHKLINE INTELLECTUAL PROPERTY DEVELOPMENT LIMITED, priority 2016, dated 2021):
Read-outs that look alike come from different tables or passages of the source.

What was measured:
ePL tagged IDO1 = target: T1, ePL tagged IDO1 (Homo sapiens, UniProt P14902); experiment: CETSA (Cellular Thermal Shifting assay) in Hela cells; assay type: binding; details: BacMam ePL tagged IDO1, 3 hours at 37° C., heated at 53° C. for 3 min
T1 construct: expressed in transfected cells; host or cells: HeLa cells transduced with BacMam virus
T1 sequence (P14902 whole entry): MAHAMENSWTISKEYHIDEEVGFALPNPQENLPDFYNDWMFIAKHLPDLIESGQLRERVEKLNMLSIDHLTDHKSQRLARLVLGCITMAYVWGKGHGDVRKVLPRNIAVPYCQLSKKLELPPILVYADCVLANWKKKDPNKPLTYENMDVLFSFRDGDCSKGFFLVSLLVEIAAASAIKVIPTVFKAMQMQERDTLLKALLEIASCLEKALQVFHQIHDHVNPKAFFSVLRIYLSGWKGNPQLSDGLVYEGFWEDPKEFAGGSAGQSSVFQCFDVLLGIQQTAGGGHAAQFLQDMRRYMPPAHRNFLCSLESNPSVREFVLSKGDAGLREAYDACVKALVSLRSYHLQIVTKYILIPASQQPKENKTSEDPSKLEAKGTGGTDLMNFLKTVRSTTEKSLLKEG
Experimental: Cellular Thermal Shifting assays were used to directly monitor the ligand binding to target proteins in cells. Hela cells were transduced with BacMam virus expressing ePL tagged IDO1 overnight. The cells were then plated over the compounds for 3 hours at 37° C. in cell culture medium containing 1% FBS. The plates were then sealed and heated at 53° C. for 3 min. InCell Hunter reagents were added and luminescence was read in 90 min.

[1] = system: human epithelial HeLa cells; experiment: HeLa cytotoxicity assay (CellTiter-Glo); assay type: cell-based; details: pCC50
Procedure, shortened: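 Read-out is CellTiter-Glo luminescence after 2 days at 37 °C, on IFN-γ-stimulated (10 nM) HeLa cells seeded at 5,000/well with compounds in 11-point 3-fold dose series. pCC50 from four-parameter curve fit; wells without cells set 100% cytotoxicity, stimulated cells with DMSO set 0%.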

[2] = target: indoleamine 2, 3-dioxygenase (IDO1) (Homo sapiens, UniProt P14902); experiment: IDO1 HeLa RapidFire MS assay (kynurenine detection by mass spectrometry); assay type: cell-based; parameters: to induce the expression of indoleamine 2, 3-dioxygenase (IDO1); details: HeLa cells, pIC50, read-out: IDO1_HELA_PXC50 (converted)
Chain of indoleamine 2, 3-dioxygenase (IDO1) (P14902 whole entry): as above
Procedure, shortened: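 Compound potency reported as pIC50 from kynurenine/internal-standard ratio (RapidFire MS) in supernatant of IFN-γ-induced (10 nM) HeLa cells, 5,000 per well, after 2 days' treatment with 11-point dilutions. Cytotoxicity in the same format by luminescent ATP detection, reported as pCC50.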

SMILES | EC50 (ePL tagged IDO1; read-out: pXC50_1 (converted)) [nM] | HELA_IDO1_TOX_PXC50 [1] | IC50 [2] [nM] | EC50 (ePL tagged IDO1; read-out: pXC50_2 (converted)) [nM]
CC(C)CN(c1ccc([C@H](C)CC(=O)O)cc1Nc1nc(C(F)(F)F)ns1)C1CCOCC1 [Example 20, (R)-3-(4-(Isobutyl(tetrahydro-2H-pyran-4-yl)amino)-3-((3-(trifluoromethyl)-1,2,4-thiadiazol-5-yl)amino)phenyl)butanoic Acid] | 9.55 | <5 | 2.51 | 
CC(C)CN(c1ccc([C@H](C)CC(=O)O)cc1Nc1nnc(C2CC2)s1)C1CCOCC1 [Example 23, (R)-3-(3-((5-cyclopropyl-1,3,4-thiadiazol-2-yl)amino)-4-(isobutyl (tetrahydro-2H-pyran-4-yl)amino)phenyl)butanoic Acid] | 331 | <5 | 3.98 | 234
